Common to all, as to type: in vivo
One data set relates to Mouse (ddy). In words: Acute toxicity of batroxobin (i.v.), mouse. As for the experimental part: (§1) The thrombin-like enzyme, batroxobin is used in the present agent. The acute toxicity (LD50 (BU/kg)) of batroxobin on mice, rats, rabbits and dogs is as follows in Table 1. The acute toxicity test was assessed by the intravenous administration of batroxobin.
In the next data set the test system is Rat (Wistar). In words: Acute toxicity of batroxobin (i.v.), rat. On the procedure:
as §1

The test system of another data set is Rabbit (NW). Description: Acute toxicity of batroxobin (i.v.), rabbit. As for the experimental part:
as §1

Another data set relates to Dog (mongrel). Description: Acute toxicity of batroxobin (i.v.), dog. On the procedure: as §1
Data set [1] concerns C57BL/6 male mice inoculated with B16-BL6 murine malignant melanoma cells. Description: Reducing effect of batroxobin on cardiotoxicity caused by adriamycin (H&E histopathology of left ventricular myocardial tissue). Particulars: batroxobin 20 BU/kg i.p. once a day and/or adriamycin 3 mg/kg i.p. once interval of 2 days; after 20 days. An excerpt:
(§2) The thrombin-like enzyme, batroxobin (hereinafter referred to as DF-521) was used, which is manufactured by Beijing Tobishi Pharmaceutical Co., Ltd. (Beijing, China) with a trade name of Dong Ling Di Fu.
The anticancer drug, adriamycin (hereinafter referred to as ADM) was used, which is manufactured by Shenzhen Main Luck Pharmaceuticals Inc.
The laboratory animals, C57BL/6 male mice (weight: 16-18 g) were divided into 4 groups: 10 mice in the control group, 7 mice in the batroxobin group, 7 mice in the adriamycin group, and 7 mice in the adriamycin+batroxobin group. Mice from each group were inoculated with a dorsal right lateral subcutaneous injection of 3×10^6 B16-BL6 murine malignant melanoma cells in 0.3 ml of tumor cell suspension. After one day of tumor cell inoculation, the control group was given an intraperitoneal injuction of physiological saline once a day; the batroxobin group was given an intraperitoneal injection of batroxobin (20 BU/kg) once a day; the adriamycin group was given an intraperitoneal injection of adriamycin (3 mg/kg) once interval of 2 days; the adriamycin+batroxobin group was given an intraperitoneal injection of adriamycin (3 mg/kg) once interval of 2 days and an intraperitoneal injection of 20 BU/kg batroxobin once a day after administration of adriamycin. […]

The subject of data set [2] is male C57BL/6 mice. In words: Reducing effect of batroxobin on bone marrow suppression caused by cisplatin. Particulars: DDP 0.8 mg/kg i.p. (+ batroxobin 30 BU/kg i.p.) once every other day; after 17th administration (33rd day).
From the text: as §2
The anticancer drug, cisplatin (hereinafter referred to as DDP) was used, which is manufactured by Yunnan Gejiu Biochemical Pharmaceutical Co., Ltd.
The laboratory animals, male C57BL/6 Mice (weight: 20-22 g) were divided into 3 groups: control group, cisplatin group (DDP group), and cisplatin+batroxobin group (DDP+DF-521 group); with 10 mice in one group. The control group was given physiological saline once every other day. The cisplatin group was given an intraperitoneal dose of 0.8 mg/kg of cisplatin once every other day. The cisplatin+batroxobin group was given an intraperitoneal dose of 0.8 mg/kg of cisplatin and 30 BU/kg of batroxobin simultaneously, once every other day. After the 17th administration (33rd day after the first administration), the experiment was terminated, blood was collected from the femoral artery under ether anesthesia using the anticoagulant EDTA, and the WBC, RBC, Plt counts and Hb value, were measured.
Furthermore the bone marrow nuclear cell (BMNC) count per femur of a mouse was measured by the following procedure. Bone marrow was sampled from 2 femora of a mouse, the bone marrow was flushed with the 2 ml physiological saline, and made bone marrow cell suspension. Twenty μl of marrow cell suspension was put into 380 μl of 3% acetic acid solution. After the red blood cells were destroyed, the hemocytometer was used for counting the BMNC count under the microscope. Then, the BMNC count per femur was calculated.
The above-mentioned BMNC, WBC, RBC, Plt counts and Hb value were used as an evaluation index for bone marrow suppression caused by cisplatin.

Data set [3] concerns male C57BL/6 mice. In words: Reducing effect of batroxobin on lethal toxicity caused by adriamycin. Particulars: ADM 3 mg/kg i.p. (+ batroxobin 30 BU/kg i.p.) once every other day, 18 times; 41th day after first dose.
From the text: as §2
The anticancer drug, adriamycin (hereinafter referred to as ADM) was used, which is manufactured by Hualian Pharmaceutical Factory of Shanghai Pharmaceutical (Group) Co., Ltd.
The laboratory animals, male C57BL/6 mice (weight: 19-22 g) were divided into three groups: control group, adriamycin group (ADM group), and adriamycin+batroxobin group (ADM+DF-521 group), with 10 mice in each group. The control group was administered with physiological saline.
The adriamycin group was given an intraperitoneal dose (3 mg/kg) of adriamycin once every other day. The adriamycin+batroxobin group was given a simultaneous dosage of 3 mg/kg of adriamycin and 30 BU/kg of batroxobin intraperitoneally, once every other day. The drug administration was performed in total of 18 times. The experiment was terminated on the 41th day after the first dose administered. The number of deaths was totaled, and the survival rate was calculated from mortality rate.

The next data set relates to C57BL/6 Mice. Description: Reducing effect of batroxobin on bone marrow suppression caused by adriamycin. The settings on record: ADM 3 mg/kg i.p. (+ batroxobin 30 BU/kg i.p.) once every other day; after 9th administration.
From the text: as §2
The anticancer drug, adriamycin (hereinafter referred to as ADM) was used, which is manufactured by Hualian Pharmaceutical Factory of Shanghai Pharmaceutical Group Co., Ltd.
The laboratory animals, C57BL/6 Mice (weight: 19-22 g) were divided into three groups: control group, adriamycin group (ADM group), and adriamycin+batroxobin (ADM+DF-521 group), with 5-10 mice (n=5 or 10) in one group. The control group was given physiological saline once every other day. The adriamycin group was given an intraperitoneal dose of 3 mg/kg of adriamycin once every other day. The adriamycin+batroxobin group was given an intraperitoneal doses of 3 mg/kg of adriamycin and 30 BU/kg of batroxobin simultaneously, once every other day. After the 9th administration, the experiment was terminated, and the blood was collected from the femoral artery under ether anesthesia using the EDTA anticoagulant. Then, the WBC, RBC counts and Hb value were measured.
Furthermore, the bone marrow nuclear cell (BMNC) count per femur of a mouse was measured with the following procedure. The bone marrow was sampled from 2 femora of a mouse, bone marrow was flushed with the 2 ml physiological saline, and made the bone marrow cell suspension. Twenty of marrow cell suspension was put into 380 μl of 3% acetic acid solution. After the red blood cells were destroyed, the hemocytometer was used for counting the BMNC count under the microscope. Then the BMNC count per femur was calculated.
The above-mentioned BMNC, RBC, WBC counts and Hb value were used as an evaluation index for bone marrow suppression caused by adriamycin.

In data set [4] the test system is male C57BL/6 mice. Description: Reducing effect of batroxobin on bone marrow suppression caused by cyclophosphamide. Particulars: CPA 100 mg/kg i.p. (+ batroxobin 30 BU/kg i.p.) once every other day; after fourth administration (7 days).
From the text: as §2
The anticancer chug, cyclophosphamide (hereinafter referred to as CPA) was used, which is manufactured by Shanxi Powerdone Pharmaceutical Co., Ltd.
The laboratory animals, male C57BL/6 mice (weight: […] were divided into three groups: control group, cyclophosphamide group (CPA group), and cyclophosphamide+batroxobin group (CPA+DF-521 group), with five mice in one group. The control group was given physiological saline once every other day. The cyclophosphamide group was given an intraperitoneal dose of 100 mg/kg of cyclophosphamide once every other day. The cyclophosphamide+batroxobin group was given an intraperitoneal dose of 100 mg/kg of cyclophosphamide and 30 BU/kg of batroxobin simultaneously, once every other day. After the fourth administration (7 days after the first administration), blood was collected from the femoral artery under ether anesthesia using the EDTA anticoagulant, and the white blood cell count (WBC), red blood cell count (RBC), hemoglobin value (Hb), and platelet count (Plt) was measured.
The bone marrow nuclear cell count (BMNC) per femur of a mouse was measured by the following procedure. Bone marrow was sampled from 2 femora of a mouse, the marrow was flushed with 2 ml of physiological saline, and made the bone marrow cell suspension. Twenty μl of bone marrow cell suspension was put into […] of 3% acetic acid solution. After the red blood cells were destroyed, the hemocytometer was used for counting the BMNC count under the microscope. Then the BMNC count per femur was calculated.
The above-mentioned BMNC, WBC, RBC, Plt counts and Hb value are used as an evaluation index for bone marrow suppression caused by cyclophosphamide.

From patent publication US10624910B2, “Thrombin-like enzyme for reducing a side effect of an anticancer drug” (priority 2007, dated 2020) come the findings set out here.

Marks after values point to notes of the source that are not given here.

In the case of batroxobin, the “LD50 Value” in the data set with Mouse (ddy) was 192~210 BU/kg; in the data set with Rat (Wistar), 105~110 BU/kg; in the data set with Rabbit (NW), over 300 BU/kg; in the data set on Dog (mongrel) it was 190~208 BU/kg. Further, the “Pathological findings in left ventricular myocardial tissue (H&E) compared to control group” value in data set [1] is “abnormalities were not observed”.
On to `N.N.[Cl][Pt][Cl]` [DDP, cisplatin], for which, in the data set with male C57BL/6 mice [2], the BMNC was 11.3 ± 2.6 ×10^6/bone, the Hb is recorded as 121.6 ± 10.7 g/L, the Plt was 1059.2 ± 241.5 ×10^9/L and the RBC was 7.4 ± 0.8 ×10^12/L. In addition, the WBC in the data set on male C57BL/6 mice [2] is given as 6.1 ± 2.2 ×10^9/L.
With `COc1cccc2c1C(=O)c1c(O)c3c(c(O)c1C2=O)C[C@@](O)(C(=O)CO)C[C@@H]3O[C@H]1C[C@H](N)[C@H](O)[C@H](C)O1` [ADM, adriamycin], in the data set with male C57BL/6 mice [3], the “Survival No/Total No” value was 4/10* and the survival rate % entry is given as “(40%)”. Besides, in the data set with C57BL/6 Mice, the BMNC is on record as 6.9 ± 1.6 ×10^6/bone, the Hb came to 94.9 ± 30.5 g/L, the RBC is 6.6 ± 1.5 ×10^12/L and the WBC is on record as 3.4 ± 0.7 ×10^9/L. The “Pathological findings in left ventricular myocardial tissue (H&E) compared to control group” value in data set [1] is “abnormalities were observed”.
Regarding `O=P1(N(CCCl)CCCl)NCCCO1` (stereo not shown) [CPA, cyclophosphamide], in the data set on male C57BL/6 mice [4], the BMNC is 2.4 ± 0.4 ×10^6/bone, the Hb is on record as 98.8 ± 9.2 g/L, the Plt is reported as 1081.6 ± 47.4 ×10^9/L and the RBC is recorded as 6.2 ± 0.5 ×10^12/L. Besides, the WBC in the data set with male C57BL/6 mice [4] is 0.8 ± 0.3 ×10^9/L.
